Data reported in patent US20040220297A1, “Self curing cements” (priority 1999, published 2004).

Test: Cytotoxicity tests
Format: cell-based

CCCCCCCC/C=C\CCCCCCCC(=O)OCc1ccc(N(C)C)cc1 [DMAO, 4-N,N-dimethylaminobenzyloleate]
cytotoxicity: non-toxic
